Data reported in patent US20150223463A1, “SPIROCYCLIC ISOXAZOLINE DERIVATIVES FOR TREATMENT OF SEA LICE” (Zoetis LLC, priority 2012, published 2015).

Tested on: Lepeophtheirus salmonis (sea lice)
Test: Sea lice bioassay, 24 hours exposure to test compound
Assay type: in vivo
Conditions: predominantly pre-adult and adult stage, generally chemical resistant strain

CS(=O)(=O)CC(=O)N1CC2(C1)OCc1cc(C3=NOC(c4cc(Cl)c(F)c(Cl)c4)(C(F)(F)F)C3)ccc12 (centres unmarked) [Example 1]
Adult Females (EC50) (adult female sea lice): 0.13 ppb | Adult Males (EC50) (adult male sea lice): 0.08 ppb
